Source: patent publication US11827657B2, “Boron containing pyrazole compounds, compositions comprising them, methods and uses thereof” (BOEHRINGER INGELHEIM ANIMAL HEALTH USA INC., priority 2020, dated 2023)

Biological target: JAK1 (Homo sapiens, UniProt P23458)
Assay: Biochemical Kinase Assay (JAK), 33P-ATP filter-binding
Conditions: Biochemical Kinase Inhibition Assay; potency level of IC50; read-out: JAK1 (range)
Experimental: Biochemical Kinase Assay Protocol (JAK) • Reagent: Base Reaction buffer; 20 mM Hepes (pH 7.5), 10 mM MgCl2, 1 mM EGTA, 0.02% Brij™ 35, 0.02 mg/ml BSA, 0.1 mM Na3VO4, 2 mM DTT, 1% DMSO, where required cofactors were added individually to each kinase reaction.
Reaction Procedure: • 1. Prepared indicated substrate in freshly prepared Base Reaction Buffer • 2. Delivered any required cofactors to the substrate solution above • 3. Delivered indicated kinase into the substrate solution and gently mix • 4. Delivered compounds in DMSO into the kinase reaction mixture by Acoustic technology (Echo550; nanoliter range), incubated for 20 minutes at room temperature • 5. Delivered 33P-ATP into the reaction mixture to initiate the reaction. • 6. Incubated kinase reaction for 2 hours at room temperature • 7. Reactions were spotted onto P81 ion exchange paper • 8. Detected kinase activity by filter-binding method.
Compounds according to the present invention were tested in the Biochemical Kinase Assay Protocol. The results are provided below in Table 1, wherein the potency levels A, B, and C in the columns labeled JAK1 (range) correspond to IC50 as follows: A<10 nM; B=10-50 nM and C>50 nM. The Example Number entries formatted ##a represent stereoisomer one and entries formatted ##b represent stereoisomer two.

Sequence of JAK1 (P23458 whole entry, species assumed): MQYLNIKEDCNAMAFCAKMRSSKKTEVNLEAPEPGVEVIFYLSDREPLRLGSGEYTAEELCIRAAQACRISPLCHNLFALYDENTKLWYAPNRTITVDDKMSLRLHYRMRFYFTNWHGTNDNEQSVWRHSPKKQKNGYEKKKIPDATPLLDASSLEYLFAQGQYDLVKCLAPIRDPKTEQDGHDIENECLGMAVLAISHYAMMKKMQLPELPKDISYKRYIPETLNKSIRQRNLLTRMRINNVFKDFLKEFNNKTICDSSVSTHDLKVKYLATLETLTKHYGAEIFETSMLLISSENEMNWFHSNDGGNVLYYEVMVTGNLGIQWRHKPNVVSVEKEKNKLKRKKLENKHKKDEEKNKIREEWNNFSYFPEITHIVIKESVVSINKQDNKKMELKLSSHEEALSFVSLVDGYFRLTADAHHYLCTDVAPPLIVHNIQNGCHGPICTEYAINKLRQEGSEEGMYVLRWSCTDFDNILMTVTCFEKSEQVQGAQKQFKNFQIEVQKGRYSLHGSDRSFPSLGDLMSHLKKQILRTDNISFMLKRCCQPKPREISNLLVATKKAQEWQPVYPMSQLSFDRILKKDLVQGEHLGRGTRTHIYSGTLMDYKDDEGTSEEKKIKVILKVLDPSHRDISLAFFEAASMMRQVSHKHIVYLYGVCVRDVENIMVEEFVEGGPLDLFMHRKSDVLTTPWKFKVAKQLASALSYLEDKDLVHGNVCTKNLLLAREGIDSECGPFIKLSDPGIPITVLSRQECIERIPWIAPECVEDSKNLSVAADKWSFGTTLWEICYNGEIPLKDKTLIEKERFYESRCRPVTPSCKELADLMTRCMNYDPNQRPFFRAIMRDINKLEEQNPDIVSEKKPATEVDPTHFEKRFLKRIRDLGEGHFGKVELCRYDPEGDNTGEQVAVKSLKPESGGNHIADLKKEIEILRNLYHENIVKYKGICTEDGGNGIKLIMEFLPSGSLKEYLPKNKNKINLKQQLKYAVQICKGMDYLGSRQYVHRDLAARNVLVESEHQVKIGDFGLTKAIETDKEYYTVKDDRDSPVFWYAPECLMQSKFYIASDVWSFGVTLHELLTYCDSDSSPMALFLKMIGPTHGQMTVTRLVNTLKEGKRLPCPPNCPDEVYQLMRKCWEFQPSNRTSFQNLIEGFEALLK

Row | IC50 | SMILES
1 | 10 to 50 nM | N#C[C@@H]1CCC[C@H]1n1cc(C(N)=O)c(Nc2ccc3c(c2)B(O)OC3)n1 (relative stereo) [Example 10, 1-(trans-2-cyanocyclopentyl)-3-[(1-hydroxy-3H-2,1-benzoxaborol-6-yl)amino]pyrazole-4-carboxamide]
2 | < 10 nM | N#CC1CCOCC1n1cc(C(N)=O)c(Nc2ccc3c(c2)C(Cl)=CB(O)O3)n1 (stereo not drawn) [Example 43, 3-[(4-chloro-2-hydroxy-1,2-benzoxaborinin-6-yl)amino]-1-[trans-4-cyanotetrahydro-2H-pyran-3-yl]pyrazole-4-carboxamide]
3 | < 10 nM | CC1=Cc2cc(Nc3nn([C@@H]4COCC[C@H]4C#N)cc3C(N)=O)cc(C)c2OB1O (relative stereo) [Example 32, 1-[trans-4-cyanotetrahydro-2H-pyran-3-yl]-3-[(2-hydroxy-3,8-dimethyl-1,2-benzoxaborinin-6-yl)amino]pyrazole-4-carboxamide]
4 | < 10 nM | N#C[C@@H]1CCOC[C@H]1n1cc(C(N)=O)c(Nc2ccc3c(c2)B(O)OC3)n1 (single isomer, unassigned) [Example 16b, 1-(trans-4-cyanotetrahydro-2H-pyran-3-yl)-3-((1-hydroxy-1,3-dihydrobenzo[c][1,2]oxaborol-6-yl)amino)-1H-pyrazole-4-carboxamide]
5 | < 10 nM | N#C[C@@H]1CCOC[C@H]1n1cc(C(N)=O)c(Nc2ccc3c(c2)C2CC2B(O)O3)n1 (relative stereo) [Example 57, 1-(trans-4-cyanotetrahydro-2H-pyran-3-yl)-3-[(2-hydroxy-1a,7b-dihydro-1H-cyclopropa[c][1,2]benzoxaborinin-6-yl)amino]pyrazole-4-carboxamide]
6 | < 10 nM | N#CC1CCOCC1n1cc(C(N)=O)c(Nc2cc(F)c3c(c2)C=CB(O)O3)n1 (stereo not drawn) [Example 44, 1-[trans-4-cyanotetrahydro-2H-pyran-3-yl]-3-[(8-fluoro-2-hydroxy-1,2-benzoxaborinin-6-yl)amino]pyrazole-4-carboxamide]
7 | > 50 nM | N#C[C@@H]1CCOC[C@H]1n1cc(C(N)=O)c(Nc2cc3c(c(C(F)(F)F)c2)OB(O)C=C3)n1 (single isomer, unassigned) [Example 28a, 1-[trans-4-cyanotetrahydro-2H-pyran-3-yl]-3-[[2-hydroxy-8-(trifluoromethyl)-1,2-benzoxaborinin-6-yl]amino]pyrazole-4-carboxamide]
8 | 10 to 50 nM | Cc1cc(Nc2nn(C3COCCC3C#N)cc2C(N)=O)cc2c1B(O)OC2 (single isomer, unassigned) [Example 6b, 1-[trans-4-cyanotetrahydropyran-3-yl]-3-[(1-hydroxy-7-methyl-3H-2,1-benzoxaborol-5-yl)amino]pyrazole-4-carboxamide (stereoisomer two)]
9 | < 10 nM | CCC1=C(CC)c2cc(Nc3nn([C@@H]4COCC[C@H]4C#N)cc3C(N)=O)ccc2OB1O (relative stereo) [Example 39, 1-(trans-4-cyanotetrahydro-2H-pyran-3-yl)-3-[(3,4-diethyl-2-hydroxy-1,2-benzoxaborinin-6-yl)amino]pyrazole-4-carboxamide]
10 | < 10 nM | N#C[C@@H]1CCOC[C@H]1n1cc(C(N)=O)c(Nc2ccc3c(c2)CCOB3O)n1 (relative stereo) [Example 7, 1-(trans-4-cyanotetrahydro-2H-pyran-3-yl)-3-((1-hydroxy-3,4-dihydro-1H-benzo[c][1,2]oxaborinin-6-yl)amino)-1H-pyrazole-4-carboxamide]
11 | < 10 nM | CC1(C)OB(O)c2cc(Nc3nn([C@@H]4COCC[C@H]4C#N)cc3C(N)=O)ccc21 (single isomer, unassigned) [Example 36a, 1-[trans-4-cyanotetrahydro-2H-pyran-3-yl]-3-[(1-hydroxy-3,3-dimethyl-2,1-benzoxaborol-6-yl)amino]pyrazole-4-carboxamide]
12 | < 10 nM | N#C[C@@H]1CCOC[C@H]1n1cc(C(N)=O)c(Nc2ccc3c(c2)B(O)OCC3)n1 (single isomer, unassigned) [Example 42b, 1-[trans-4-cyanotetrahydro-2H-pyran-3-yl]-3-[(1-hydroxy-3,4-dihydro-2,1-benzoxaborinin-7-yl)amino]pyrazole-4-carboxamide]
13 | < 10 nM | Cc1cc(Nc2nn(C3COCCC3C#N)cc2C(N)=O)cc2c1OB(O)C=C2 (stereo not drawn) [Example 27, 1-[trans-4-cyanotetrahydro-2H-pyran-3-yl]-3-[(2-hydroxy-8-methyl-1,2-benzoxaborinin-6-yl)amino]pyrazole-4-carboxamide]
14 | < 10 nM | N#CC1CCOCC1n1cc(C(N)=O)c(Nc2cc(Cl)c3c(c2)C=CB(O)O3)n1 (stereo not drawn) [Example 13, 3-((8-chloro-2-hydroxy-2H-benzo[e][1,2]oxaborinin-6-yl)amino)-1-(trans-4-cyanotetrahydro-2H-pyran-3-yl)-1H-pyrazole-4-carboxamide]
15 | 10 to 50 nM | CC(C)(C)C1=Cc2cc(Nc3nn([C@@H]4CCC[C@H]4C#N)cc3C(N)=O)ccc2OB1O (relative stereo) [Example 20, 3-[(3-tert-butyl-2-hydroxy-1,2-benzoxaborinin-6-yl)amino]-1-(trans-2-cyanocyclopentyl)pyrazole-4-carboxamide]
16 | < 10 nM | N#C[C@@H]1CCOC[C@H]1n1cc(C(N)=O)c(Nc2ccc3c(c2)C(Cl)=CB(O)O3)n1 (single isomer, unassigned) [Example 43b, 3-[(4-chloro-2-hydroxy-1,2-benzoxaborinin-6-yl)amino]-1-[trans-4-cyanotetrahydro-2H-pyran-3-yl]pyrazole-4-carboxamide]
17 | < 10 nM | CC1=C(C)c2cc(Nc3nn(C4COCCC4C#N)cc3C(N)=O)cc(C)c2OB1O (stereo not drawn) [Example 23, 1-(trans-4-cyanotetrahydropyran-3-yl)-3-[(2-hydroxy-3,4,8-trimethyl-1,2-benzoxaborinin-6-yl)amino]pyrazole-4-carboxamide]
18 | > 50 nM | N#C[C@@H]1CCOC[C@H]1n1cc(C(N)=O)c(Nc2cc3c(c(OC(F)(F)F)c2)OB(O)C=C3)n1 (single isomer, unassigned) [Example 53a, 1-[trans-4-cyanotetrahydro-2H-pyran-3-yl]-3-[[2-hydroxy-8-(trifluoromethoxy)-1,2-benzoxaborinin-6-yl]amino]pyrazole-4-carboxamide]
19 | < 10 nM | CC1=CB(O)Oc2c(C)cc(Nc3nn([C@@H]4COCC[C@H]4C#N)cc3C(N)=O)cc21 (single isomer, unassigned) [Example 47a, 1-[trans-4-cyanotetrahydro-2H-pyran-3-yl]-3-[(2-hydroxy-4,8-dimethyl-1,2-benzoxaborinin-6-yl)amino]pyrazole-4-carboxamide]
20 | < 10 nM | N#C[C@@H]1CCOC[C@H]1n1cc(C(N)=O)c(Nc2cc(Cl)c3c(c2)C=CB(O)O3)n1 (single isomer, unassigned) [Example 13a, 3-[(8-chloro-2-hydroxy-1,2-benzoxaborinin-6-yl)amino]-1-[trans-4-cyanotetrahydro-2H-pyran-3-yl]pyrazole-4-carboxamide]
21 | < 10 nM | N#CC1CCOCC1n1cc(C(N)=O)c(Nc2ccc3c(c2)B(O)OC3)n1 (stereo not drawn) [Example 16, 1-(trans-4-cyanotetrahydro-2H-pyran-3-yl)-3-((1-hydroxy-1,3-dihydrobenzo[c][1,2]oxaborol-6-yl)amino)-1H-pyrazole-4-carboxamide]
